Assay results taken from ChEMBL document CHEMBL3864190, “Discovery of Pyrazolopyrimidine Derivatives as Novel Dual Inhibitors of BTK and PI3Kδ” (ACS Med Chem Lett, 2016).
pIC50: −log10 of the molar value. Values belong to the molecule of their own block, whether it stands above or below them.

Legend:
[1] = molecular target: T1, Phosphatidylinositol 4,5-bisphosphate 3-kinase catalytic subunit delta isoform (Homo sapiens) (UniProt O00329); assay: Inhibition of PI3Kdelta (unknown origin) using biotinylated PIP2 as substrate at 100 nM in presence of streptavidin-APC by FRET assay
T1 sequence (whole entry): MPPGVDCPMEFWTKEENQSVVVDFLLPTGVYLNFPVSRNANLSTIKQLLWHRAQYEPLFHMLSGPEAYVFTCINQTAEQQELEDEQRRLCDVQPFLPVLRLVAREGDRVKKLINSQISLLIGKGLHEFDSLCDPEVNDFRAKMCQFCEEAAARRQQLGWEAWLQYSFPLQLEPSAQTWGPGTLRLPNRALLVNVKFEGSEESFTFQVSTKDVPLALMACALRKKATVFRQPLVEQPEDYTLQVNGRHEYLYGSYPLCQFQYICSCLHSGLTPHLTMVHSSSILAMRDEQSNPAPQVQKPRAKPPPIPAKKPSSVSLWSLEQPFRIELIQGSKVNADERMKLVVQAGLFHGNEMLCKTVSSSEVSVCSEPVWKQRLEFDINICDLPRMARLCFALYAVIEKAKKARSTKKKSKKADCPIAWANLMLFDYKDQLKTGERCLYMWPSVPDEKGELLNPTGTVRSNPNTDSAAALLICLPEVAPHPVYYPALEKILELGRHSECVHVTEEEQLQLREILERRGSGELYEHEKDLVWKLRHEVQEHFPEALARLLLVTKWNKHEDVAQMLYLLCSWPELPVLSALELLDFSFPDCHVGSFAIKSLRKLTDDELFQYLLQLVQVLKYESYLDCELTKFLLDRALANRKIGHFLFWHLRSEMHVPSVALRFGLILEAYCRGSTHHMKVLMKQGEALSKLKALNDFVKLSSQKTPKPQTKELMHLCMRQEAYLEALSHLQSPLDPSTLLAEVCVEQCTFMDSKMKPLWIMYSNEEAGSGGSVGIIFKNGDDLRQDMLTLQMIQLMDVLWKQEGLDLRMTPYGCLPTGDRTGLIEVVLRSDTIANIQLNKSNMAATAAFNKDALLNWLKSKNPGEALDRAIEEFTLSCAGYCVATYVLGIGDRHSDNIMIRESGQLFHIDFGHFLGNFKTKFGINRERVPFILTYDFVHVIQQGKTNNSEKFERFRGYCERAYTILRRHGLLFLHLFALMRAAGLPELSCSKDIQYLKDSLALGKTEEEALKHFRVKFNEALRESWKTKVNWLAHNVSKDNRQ

[2] = molecular target: T2, Tyrosine-protein kinase BTK (Homo sapiens, UniProt Q06187); conditions: at 100 nM
T2 sequence (Q06187 whole entry): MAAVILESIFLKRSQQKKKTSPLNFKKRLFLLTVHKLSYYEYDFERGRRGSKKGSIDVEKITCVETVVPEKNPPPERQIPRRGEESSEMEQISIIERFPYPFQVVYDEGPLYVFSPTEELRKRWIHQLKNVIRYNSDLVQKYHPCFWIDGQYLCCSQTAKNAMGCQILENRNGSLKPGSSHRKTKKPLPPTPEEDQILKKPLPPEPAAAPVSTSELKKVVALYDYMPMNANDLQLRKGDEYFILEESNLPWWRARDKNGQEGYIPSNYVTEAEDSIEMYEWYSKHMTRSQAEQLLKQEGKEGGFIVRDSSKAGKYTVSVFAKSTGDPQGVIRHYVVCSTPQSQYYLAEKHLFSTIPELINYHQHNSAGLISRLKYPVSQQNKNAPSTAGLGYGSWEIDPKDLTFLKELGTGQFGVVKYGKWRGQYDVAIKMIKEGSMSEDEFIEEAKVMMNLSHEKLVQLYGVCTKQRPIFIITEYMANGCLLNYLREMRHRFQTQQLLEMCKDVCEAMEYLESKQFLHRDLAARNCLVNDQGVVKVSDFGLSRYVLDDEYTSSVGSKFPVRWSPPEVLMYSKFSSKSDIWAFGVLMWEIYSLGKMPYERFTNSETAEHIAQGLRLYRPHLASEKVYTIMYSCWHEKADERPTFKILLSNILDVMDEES

[3] = Drug metabolism in mouse liver microsomes assessed as UGT-mediated compound glucuronidation by measuring parent compound remaining at 5 uM after 30 mins in presence of UDPGA by LC-MS/MS analysis; format: ADME; conditions: for remaining at 0.5 h, 5 µM: liver microsomes, read-out: Stability
[4] = molecular target: T3, Phosphatidylinositol 4,5-bisphosphate 3-kinase catalytic subunit delta isoform (Homo sapiens, UniProt O00329); assay: Inhibition of PI3Kdelta (unknown origin) using biotinylated PIP2 as substrate in presence of streptavidin-APC by FRET assay
T3 sequence (O00329 whole entry): T1 sequence (whole entry)

[5] = molecular target: T2, Tyrosine-protein kinase BTK
Homo sapiens [6] = organism: Homo sapiens; assay: Selectivity ratio of IC50 for PI3Kalpha (unknown origin) to IC50 for PI3Kdelta (unknown origin)
Homo sapiens [7] = organism: Homo sapiens; assay: Selectivity ratio of IC50 for PI3Kbeta (unknown origin) to IC50 for PI3Kdelta (unknown origin)
Homo sapiens [8] = organism: Homo sapiens; assay: Selectivity ratio of IC50 for PI3Kgamma (unknown origin) to IC50 for PI3Kdelta (unknown origin)
Homo sapiens [9] = organism: Homo sapiens; assay: Selectivity ratio of IC50 for human BMX to IC50 for human BTK
Homo sapiens [10] = organism: Homo sapiens; assay: Selectivity ratio of IC50 for human TEC to IC50 for human BTK
[11] = Drug metabolism in mouse liver microsomes assessed as compound oxidation by measuring parent compound remaining at 1 uM after 30 mins in presence of NADPH by LC-MS/MS analysis; format: ADME
[12] = Drug metabolism in human liver microsomes assessed as compound oxidation by measuring parent compound remaining at 1 uM after 30 mins in presence of NADPH by LC-MS/MS analysis; format: ADME
[13] = Drug metabolism in rat liver microsomes assessed as compound oxidation by measuring parent compound remaining at 1 uM after 30 mins in presence of NADPH by LC-MS/MS analysis; format: ADME; conditions: microsomes, 0.5 h, 1 µM
[14] = Drug metabolism in dog liver microsomes assessed as compound oxidation by measuring parent compound remaining at 1 uM after 30 mins in presence of NADPH by LC-MS/MS analysis; format: ADME, Canis lupus familiaris; conditions: 0.5 h
[15] = Efflux ratio of apparent permeability from basolateral to apical side over apical to basolateral side in human Caco2 cells; format: ADME, cell-based; conditions: caco-2
[16] = Protein binding in mouse plasma; format: ADME, cell-free
[17] = Clearance in mouse plasma at 2 mg/kg, iv or 10 mg/kg, po by HPLC/MS analysis; format: ADME, organism-based; conditions: in vivo
[18] = Apparent volume of distribution in mouse plasma at 2 mg/kg, iv or 10 mg/kg, po by HPLC/MS analysis; format: ADME, organism-based; conditions: in vivo
[19] = AUC in mouse plasma at 10 mg/kg, po by HPLC/MS analysis; format: ADME, organism-based; conditions: in vivo
[20] = Half life in mouse plasma at 10 mg/kg, po by HPLC/MS analysis; format: ADME, organism-based; conditions: in vivo
[21] = Oral bioavailability in mouse plasma at 10 mg/kg by HPLC/MS analysis; format: ADME, organism-based; conditions: in vivo
[22] = Clearance in mouse plasma at 5 mg/kg, iv or 15 mg/kg, po by HPLC/MS analysis; format: ADME, organism-based
[23] = Apparent volume of distribution in mouse plasma at 5 mg/kg, iv or 15 mg/kg, po by HPLC/MS analysis; format: ADME, organism-based; conditions: read-out: Vz
[24] = AUC in mouse plasma at 15 mg/kg, po by HPLC/MS analysis; format: ADME, organism-based
[25] = Half life in mouse plasma at 15 mg/kg, po by HPLC/MS analysis; format: ADME, organism-based
[26] = Oral bioavailability in mouse plasma at 15 mg/kg by HPLC/MS analysis; format: ADME, organism-based
[27] = Drug metabolism in human liver microsomes assessed as UGT-mediated compound glucuronidation by measuring parent compound remaining at 5 uM after 30 mins in presence of UDPGA by LC-MS/MS analysis; format: ADME; conditions: read-out: Stability
[28] = liver microsomes, read-out: Stability

SMILES: Nc1ncnc2c1c(-c1ccc3nc[nH]c3c1)nn2C1Cc2ccccc2C1
inhibition [1]: 78% | inhibition [2]: 9.6%

SMILES: Nc1ncnc2c1c(-c1ccc3cc[nH]c3c1)nn2C1Cc2ccccc2C1
inhibition [1]: 24% | inhibition [2]: 46%

SMILES: COc1ccc(-c2nn(C3Cc4ccccc4C3)c3ncnc(N)c23)cc1N
inhibition [1]: 14% | remaining at 0.5 h, 5 µM [3]: 89% | inhibition [2]: 72%

SMILES: Cc1ccc(-c2nn(C3Cc4ccccc4C3)c3ncnc(N)c23)cc1O
pIC50 [4]: 6.76 | pIC50 [5]: 7.37

SMILES: Nc1cc(-c2nn(C3Cc4ccccc4C3)c3ncnc(N)c23)ccc1F
inhibition [1]: 8.2% | remaining at 0.5 h, 5 µM [3]: 92% | inhibition [2]: 79%

SMILES: Cc1ccccc1-n1c(Cn2nc(-c3cc(O)cc(F)c3)c3c(N)ncnc32)nc2cccc(C)c2c1=O
pIC50 [5]: < 5.00

SMILES: Nc1ncnc2c1c(-c1ccc3[nH]cnc3c1)nn2C1Cc2ccccc2C1
remaining at 0.5 h, 5 µM [3]: 90%

SMILES: Nc1ncnc2c1c(-c1ccc(Cl)c(O)c1)nn2C1Cc2ccccc2C1
pIC50 [5]: 7.85

SMILES: COc1ccc(-c2nn(C3Cc4ccccc4C3)c3ncnc(N)c23)cc1O
clearance [22]: 31.2 mL/min/kg | Vd [23]: 6.56 L/kg | AUC [24]: 2.37 µM·h | half-life [25]: 6.3 h | bioavailability [26]: 11% | remaining at 0.5 h, 1 µM [11, 28]: 14% | remaining at 0.5 h, 5 µM [3]: 12% | remaining at 0.5 h, 1 µM [12, 28]: 52% | remaining at 0.5 h, 5 µM [27]: 7%

Other lines, results leading:

pIC50 [4]: 7.14 | pIC50 [5]: 7.72
SMILES: Nc1ccc2c(c1)CC(n1nc(-c3cc(F)c4c(c3)NCCO4)c3c(N)ncnc31)CC2 (single isomer, unassigned; (-))

Ratio IC50 (Homo sapiens [6]): 17 | Ratio IC50 (Homo sapiens [7]): 44 | Ratio IC50 (Homo sapiens [8]): 7 | Ratio IC50 (Homo sapiens [9]): 1 | Ratio IC50 (Homo sapiens [10]): 7
SMILES: Nc1ccc2c(c1)CC(n1nc(-c3cc(F)c4c(c3)NCCO4)c3c(N)ncnc31)C2 (single isomer, unassigned; (-)) [listing 1 of 2 here]

inhibition [1]: 40% | remaining at 0.5 h, 5 µM [3]: 98% | inhibition [2]: 57%
SMILES: Nc1ncnc2c1c(-c1ccc3c(c1)NCCO3)nn2C1Cc2ccccc2C1

pIC50 [4]: 7.80 | Stability ([11]; microsomes, 0.5 h, 1 µM): 11% | Stability ([3]; microsomes, 0.5 h, 5 µM): 99% | Stability ([12]; microsomes, 0.5 h, 1 µM): 63% | Stability [13]: 46% | Stability [14]: 32% | Ratio [15]: 1.7 | PPB [16]: 98% | CL [17]: 9.83 mL/min/kg | Vz [18]: 3.44 L/kg | AUC [19]: 15.2 µM·h | t1/2 [20]: 1.3 h | F [21]: 40% | pIC50 [5]: 7.49
SMILES: Nc1ccc2c(c1)CC(n1nc(-c3cc(F)c4c(c3)NCCO4)c3c(N)ncnc31)C2 (single isomer, unassigned; (-)) [listing 2 of 2 here]

inhibition [1]: 21% | remaining at 0.5 h, 5 µM [3]: 85% | inhibition [2]: 21%
SMILES: Nc1ncnc2c1c(-c1cc(F)c(F)c(F)c1)nn2C1Cc2ccccc2C1
